These results are taken from ChEMBL document CHEMBL4028841, “The identification of novel acid isostere based inhibitors of the VPS10P family sorting receptor Sortilin” (Bioorg Med Chem Lett, 2017).

Activity calls are given as the source filed them. The rule behind the calls is not given here. Where only a bound is given, the exact number is not on record here.

The target in the first data set is T1, Sortilin (Homo sapiens, UniProt Q99523).
T1 sequence (Q99523 whole entry): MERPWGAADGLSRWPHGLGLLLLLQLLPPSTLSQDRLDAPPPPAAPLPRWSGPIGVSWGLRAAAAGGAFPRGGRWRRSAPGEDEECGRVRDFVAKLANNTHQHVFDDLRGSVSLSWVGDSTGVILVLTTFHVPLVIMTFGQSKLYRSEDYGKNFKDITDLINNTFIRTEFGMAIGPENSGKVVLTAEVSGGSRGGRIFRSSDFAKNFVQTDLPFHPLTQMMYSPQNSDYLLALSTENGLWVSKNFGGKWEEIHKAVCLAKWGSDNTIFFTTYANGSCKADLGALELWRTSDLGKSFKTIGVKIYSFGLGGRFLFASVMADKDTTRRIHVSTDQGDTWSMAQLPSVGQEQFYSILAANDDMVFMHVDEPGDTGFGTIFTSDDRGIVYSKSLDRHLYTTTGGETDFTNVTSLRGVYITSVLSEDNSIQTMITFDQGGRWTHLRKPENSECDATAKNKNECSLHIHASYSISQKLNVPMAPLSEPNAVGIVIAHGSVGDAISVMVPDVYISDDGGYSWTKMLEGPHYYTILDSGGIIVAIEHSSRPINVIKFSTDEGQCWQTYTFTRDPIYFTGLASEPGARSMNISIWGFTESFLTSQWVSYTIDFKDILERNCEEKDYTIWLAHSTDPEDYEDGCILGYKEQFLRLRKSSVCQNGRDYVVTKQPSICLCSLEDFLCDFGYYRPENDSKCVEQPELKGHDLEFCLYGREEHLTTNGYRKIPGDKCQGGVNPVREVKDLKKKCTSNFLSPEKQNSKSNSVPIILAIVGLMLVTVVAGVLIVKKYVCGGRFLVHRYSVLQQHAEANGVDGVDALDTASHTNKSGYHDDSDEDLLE
In words: Displacement of [3H]-neurotensin from human His6-tagged sortilin pretreated for 30 mins followed by [3H]-neurotensin addition after 6 hrs measured for 360 secs by SPA.
Details: not given
One may read the IC50 as the point on the concentration scale where inhibition reaches its midpoint. Take `O=C1CC(c2ccccc2)=NO1`: the IC50 was 158 µM.

Regarding `CC(C)CCc1n[nH]c(=O)o1`, the IC50 is 63.1 µM. Regarding `Cc1cccc(NC(=O)C2C(=O)N=NN2CCC(C)C)n1` (stereo not drawn), the IC50 was 12.6 µM. As for `CC(C)CCc1noc(=O)[nH]1`, the IC50 was 126 µM.

On to `CC(C)CCN1N=NC(=O)C1C` (stereo not drawn), for which the IC50 was 79.4 µM. The same measure, in the same setting: the same measure for `CC(=O)NC1C(=O)N=NN1CCC(C)C` (stereo not drawn): 31.6 µM; for `O=C1CN(Cc2ccccc2)N=N1`: 126 µM. Take `CC(C)CCN1N=NC(=O)C1C(=O)Nc1ccncc1` (stereo not drawn): the IC50 was 63.1 µM. As to `O=C1CC(Cc2ccccc2)=NO1`, the IC50 was 79.4 µM.

`CNC(=O)C1C(=O)N=NN1CCC(C)C` (stereo not drawn): the IC50 was 39.8 µM. Turning to `O=c1[nH]nc(-c2ccccc2)o1`, the IC50 is 126 µM. On the same count and under the same terms, the same measure for `CC(C)CC1=NOC(=O)C1`: 31.6 µM. Same read-out and setting: the same measure for `CC(C)CCN1CC(=O)N=N1`: 63.1 µM; for `CC(C)CCN1N=NC(=O)C1C(N)=O` (stereo not drawn): 50.1 µM. `CC(C)CCN1N=NC(=O)C1C(=O)Nc1cccnc1` (stereo not drawn): the IC50 is 3.98 µM.

For `Cc1cccc(C(=O)NC2C(=O)N=NN2CCC(C)C)n1` (stereo not drawn), the IC50 is 39.8 µM. On to `CC(C)CCN1N=NC(=O)C1NC(=O)c1cccnc1` (stereo not drawn), for which the IC50 was 12.6 µM. Consider `CC(C)CCN1N=NC(=O)C1NC(=O)c1ccncc1` (stereo not drawn), for which the IC50 was 20 µM.

For `CC(C)CCC1=NOC(=O)C1`, the IC50 was 12.6 µM.

Another data set concerns the target Sortilin (Homo sapiens) (UniProt Q99523). The data set is described as follows: Displacement of [3H]-neurotensin from human His6-tagged sortilin at 500 uM pretreated for 30 mins followed by [3H]-neurotensin addition after 6 hrs measured for 360 secs by SPA relative to control.
Details: not given
Regarding `O=c1cc(-c2ccccc2)o[nH]1`, the Imax entry is “inactive”.

As for `CC(C)CN1CC(=O)N=N1`, the Imax is 69%. On to `O=C1CN(c2ccc(Cl)cc2)N=N1`, for which the Imax entry is “inactive”. The same measure, in the same setting: the same measure for `CCC1C(=O)N=NN1CCC(C)C` (stereo not drawn): 57%; for `O=c1[nH]nc(-c2ccccc2Cl)o1`: 63%.

`CC(C)Cc1n[nH]c(=O)o1`: the Imax came to 60%. For `O=C1CC(c2cccc(Cl)c2)=NO1`, the Imax amounted to 30%.

Consider `CC(C)CCN1N=NC(=O)C1C(C)C` (stereo not drawn), for which the Imax is < 20%. Turning to `O=c1[nH]nc(Cc2ccccc2)o1`, the Imax amounted to 54%. On the same count and under the same terms, in the case of `O=C1CC(c2ccc(Cl)cc2)=NO1` it was “inactive”; in that of `O=C1CN(c2ccccc2)N=N1`, 50%; in that of `O=c1[nH]c(-c2ccccc2Cl)no1`, “inactive”. Same read-out and setting: the same measure for `O=C1CN(c2cccc(Cl)c2)N=N1`: “inactive”.

`O=c1[nH]nc(-c2ccc(Cl)cc2)o1`: the Imax entry was “inactive”. Turning to `O=c1[nH]c(-c2ccc(Cl)cc2)no1`, the Imax result was “inactive”. On the same count and under the same terms, the same measure for `Oc1nc(-c2ccccc2)no1`: 35%; for `O=c1[nH]nc(-c2cccc(Cl)c2)o1`: “inactive”. With `O=C1CC(c2ccccc2Cl)=NO1`, the Imax came out at 37%. The same measure, in the same setting: the same measure for `O=C1CN(c2ccccc2Cl)N=N1`: “inactive”.

As to `O=c1[nH]c(-c2cccc(Cl)c2)no1`, the Imax amounted to 42%. Still for that read-out and setting: the same measure for `O=c1[nH]c(Cc2ccccc2)no1`: 55%.

A further data set relates to MDR1. In words: Permeability in MDCK cells expressing human MDR1 at 0.5 uM after 150 mins by LC-MS/MS analysis. It counts as ADME, cell-based, Canis lupus familiaris. To be noted: dog, read-out: permeability.
Regarding `CC(=O)NC1C(=O)N=NN1CCC(C)C` (stereo not drawn), the Papp at 2.5 h, 0.5 µM is < 0.1 ×10⁻⁶ cm/s. On to `CNC(=O)C1C(=O)N=NN1CCC(C)C` (stereo not drawn), for which the Papp at 2.5 h, 0.5 µM was < 0.1 ×10⁻⁶ cm/s.

In the case of `Cc1cccc(NC(=O)c2ccc(C(F)(F)F)cc2C(=O)O)n1`, the Papp at 2.5 h, 0.5 µM is 0.3 ×10⁻⁶ cm/s. For the molecule `CC(C)CCN1CC(=O)N=N1`, the Papp at 2.5 h, 0.5 µM was 2.9 ×10⁻⁶ cm/s. Still for that read-out and setting: in the case of `CC(C)CCN1N=NC(=O)C1C(=O)Nc1cccnc1` (stereo not drawn) it was 2.9 ×10⁻⁶ cm/s; in that of `CC(C)CCN1N=NC(=O)C1NC(=O)c1cccnc1` (stereo not drawn), < 0.1 ×10⁻⁶ cm/s.

Test system in another data set: not listed separately
The data set is described as follows: Dissociation constant, pKa of the compound in 29 to 54% methanol. The data set is classed as physicochemical.
Details: not given
For orientation: pKa means the negative logarithm of the acid dissociation constant. A low value points to a group that gives up its proton readily. Molecule `Cn1nnc(O)c1CC(N)C(=O)O` (stereo not drawn) returned a pKa of 6.4.

`CC(C)CCN1CC(=O)N=N1` registered a pKa of 7.
